Results on one compound are retold here after patent US9526727B2, “Inhibitors of beta-secretase” (Vitae Pharmaceuticals, Inc., priority 2012, dated 2016).

The series addresses hERG channel (Homo sapiens (Human), UniProt Q12809). As to the kind of experiment: hERG-Channel Assay (Assay 3), whole-cell patch clamp. Format: cell-based. Particulars: HEK293 cells stably transfected with hERG cDNA, pH 7.4, 35° C. An excerpt: hERG-Channel Assay (Assay 3)
• HEK (human embryonic kidney) 293 cells were stably transfected with hERG cDNA. • Pipettes and Solutions:
Cells were superfused with a bath solution containing (mM): NaCl (137), KCl (4.0), MgCl2 (1.0), CaCl2 (1.8), Glucose (10), HEPES (10), pH 7.4 with NaOH. Patch pipettes were made from borosilicate glass tubing using a horizontal puller and filled with pipette solution containing (mM): K-aspartate (130), MgCl2 (5.0), EGTA (5.0), K2ATP (4.0), HEPES (10.0), pH 7.2 with KOH. Resistance of the microelectrodes was in the range between 2 and 5 MΩ.
Stimulation and Recording:
Membrane currents were recorded using an EPC-10 patch clamp amplifier and PatchMaster software. hERG-mediated membrane currents were recorded at 35° C., using the whole-cell configuration of the patch-clamp technique. […] During each inter-pulse interval 4 pulses scaled down by a factor of 0.2 were recorded for a P/n leak subtraction procedure. […]
The different concentrations of the test compound were applied sequentially on each of the different cells investigated. A steady state level of baseline current was measured for at least 6 sweeps prior to the application of the first test compound concentration. […]
Peak current amplitudes were measured 3 ms after the ramp to +40 mV. […]
On the technique in general: hERG is a cardiac potassium channel; its block is linked to QT prolongation.

As usually defined, the inhibition is the relative decrease from the control value, in per cent.

Sequence of hERG channel (Q12809 whole entry): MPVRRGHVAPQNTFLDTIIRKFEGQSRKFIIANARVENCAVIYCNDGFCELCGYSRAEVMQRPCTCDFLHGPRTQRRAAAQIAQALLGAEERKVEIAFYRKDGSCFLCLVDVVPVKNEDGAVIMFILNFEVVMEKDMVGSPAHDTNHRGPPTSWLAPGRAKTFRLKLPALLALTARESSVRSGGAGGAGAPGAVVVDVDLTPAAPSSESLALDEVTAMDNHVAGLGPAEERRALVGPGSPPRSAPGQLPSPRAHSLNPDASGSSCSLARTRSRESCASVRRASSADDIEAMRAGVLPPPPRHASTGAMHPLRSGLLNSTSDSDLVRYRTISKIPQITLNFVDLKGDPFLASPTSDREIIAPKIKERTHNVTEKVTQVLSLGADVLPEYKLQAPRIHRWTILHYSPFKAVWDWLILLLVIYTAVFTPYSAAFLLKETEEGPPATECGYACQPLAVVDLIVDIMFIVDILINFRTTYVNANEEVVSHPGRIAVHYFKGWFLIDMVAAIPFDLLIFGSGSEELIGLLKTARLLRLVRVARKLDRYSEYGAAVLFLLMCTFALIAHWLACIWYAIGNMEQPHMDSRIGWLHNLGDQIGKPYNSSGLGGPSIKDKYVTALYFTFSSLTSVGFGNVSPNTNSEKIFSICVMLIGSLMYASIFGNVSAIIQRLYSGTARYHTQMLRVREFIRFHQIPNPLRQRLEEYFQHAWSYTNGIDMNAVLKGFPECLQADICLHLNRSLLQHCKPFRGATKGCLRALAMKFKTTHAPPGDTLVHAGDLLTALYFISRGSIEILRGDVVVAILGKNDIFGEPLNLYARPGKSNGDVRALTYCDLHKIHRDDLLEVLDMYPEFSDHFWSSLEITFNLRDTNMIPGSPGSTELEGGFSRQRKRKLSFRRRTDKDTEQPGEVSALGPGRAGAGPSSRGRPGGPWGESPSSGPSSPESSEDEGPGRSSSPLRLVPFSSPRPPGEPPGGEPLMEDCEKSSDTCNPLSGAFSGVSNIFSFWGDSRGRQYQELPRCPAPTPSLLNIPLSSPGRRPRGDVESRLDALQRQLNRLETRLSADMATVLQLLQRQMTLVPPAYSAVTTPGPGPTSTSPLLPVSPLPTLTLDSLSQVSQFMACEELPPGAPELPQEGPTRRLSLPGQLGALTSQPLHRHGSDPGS

As for `COC1CCC2(CC1)Cc1ccc(C#N)cc1C21N=C(N)N(CC2CCCO2)C1=O` (stereo not shown), the inhibition at 10 µM was found to be 16%.
